Assay results as given in article PMC8159111 (Pathogens, 2021).
Like-named read-outs stand apart in the source and are kept apart here.

Tests used:
[1] = Cytotoxicity (CC50) determination, crystal violet assay; assay type: cell-based; conditions: African green monkey, Vero E6 cells, Table 4 prints no unit, Figure 4 prints μM, read-out: CC50 (half-maximal cytotoxic concentration)
Experimental: To assess the half maximal cytotoxic concentration (CC50), stock solutions of the test compounds were prepared in 10% DMSO in ddH2O and diluted further to the working solutions with DMEM. The cytotoxic activity of the extracts was tested in VERO-E6 cells by using crystal violet assay as previously described with minor modifications. Briefly, the cells were seeded in 96-well plates (100 µL/well at a density of 3 × 10^5 cells/mL) and incubated for 24 h at 37 °C in a humidified 5% CO2 incubator. After 24 h, cells were treated with various concentrations of the tested compounds in triplicates. Seventy two hours later, the supernatant was discarded, and cell monolayers were fixed with 10% formaldehyde for 1 h at room temperature (RT). The fixed monolayers were then dried and stained with 50 µL of 0.1% crystal violet for 20 min on a bench rocker at RT. The monolayers were then washed, dried and the crystal violet dye in each well was then dissolved with 200 µL of methanol for 20 min on a bench rocker at RT. The absorbance of crystal violet solutions was measured at λmax 570 nm as a reference wavelength using a multi-well plate reader.

[2] = system: SARS-CoV-2 "NRC-03-nhCoV" virus; assay: Inhibitory concentration 50 (IC50) determination, reduction of virus-induced cytopathic effect in Vero-E6 cells; assay type: cell-based; conditions: for Selectivity Index (CC50/IC50): CC50 on Vero E6 / IC50 against NRC-03-nhCoV; for IC50: Severe acute respiratory syndrome coronavirus 2, Vero C1008, 72 h, unit not given in Table 4 and Figure 6, Figure 4 and text print μM
Experimental: The IC50 values for the tested compounds were determined as previously described, with minor modifications. Briefly, in 96-well tissue culture plates, 2.4 × 10^4 Vero-E6 cells were distributed in each well and incubated overnight at a humidified 37°C incubator under 5% CO2 condition. The cell monolayers were then washed once with 1× PBS. An aliquot of the SARS-CoV-2 “NRC-03-nhCoV” virus containing 100 TCID50 was incubated with serial diluted compounds and kept at 37 °C for 1 h. The Vero-E6 cells were treated with virus/compound mix and co-incubated at 37 °C in a total volume of 200 µL per well. Untreated cells infected with virus represented the virus control; however, cells that were not treated and not infected were the cell control. Following incubation at 37 °C in 5% CO2 incubator for 72 h, the cells were fixed with 100 μL of 10% paraformaldehyde for 20 min and stained with 0.5% crystal violet in distilled water for 15 min at RT. The crystal violet dye was then dissolved using 100 μL of absolute methanol per well and the optical density of the color was measured at 570 nm using the Anthos Zenyth 200 rt plate reader (Anthos Labtec Instruments, Heerhugowaard, the Netherlands).

[3] = against NRC-03-nhCoV in Vero E6, 72 h, CPE reduction, crystal violet, read-out: IC50 (half-maximal inhibitory concentration)

SMILES	CC50 at 72 h [1] [µM]	Selectivity Index (CC50/IC50) [2]	IC50 [2, 3] [µM]	IC50 ([2]; read-out: IC50 (half-maximal inhibitory concentration), against NRC-03-nhCoV in Vero E6, 72 h, CPE reduction, crystal violet) [µM]
CC1(C)CCC2(C(=O)OCc3cn(-c4ccccc4)nn3)CCC3(C)C(=CCC4C5(C)CC(O)C(O)C(C)(C)C5CCC43C)C2C1 (stereo not drawn) [Compound 11, (1-Phenyl-1H-1,2,3-triazol-4-yl)methyl-(2α,3β)-2,3-dihydroxyolean-12-en-28-oate]	218	1.62	135	
C#CCOC(=O)C12CCC(C)(C)CC1C1=CCC3C4(C)CC(O)C(OCC#C)C(C)(C)C4CCC3(C)C1(C)CC2 (stereo not drawn) [Compound 6, Propargyl-(3α)-3-(propargyloxy)-(2β)-2-hydroxy-olean-12-en-28-oate]	209	1.55	135	
COc1ccc(-n2cc(COC(=O)[C@]34CCC(C)(C)CC3C3=CCC5[C@@]6(C)C[C@@H](OCc7cn(-c8ccc(OC)cc8)nn7)[C@H](OCc7cn(-c8ccc(OC)cc8)nn7)C(C)(C)C6CC[C@@]5(C)[C@]3(C)CC4)nn2)cc1 (stereo partly drawn) [Compound 14, (1-(4-Methoxyphenyl)-1H-1,2,3-triazol-4-yl)methyl-(2α,3β)-2,3-bis((1-(4-methoxyphenyl)-1H-1,2,3-triazol-4-yl)methoxy)-olean-12-en-28-oate]	405	2.96		
CC1(C)CC[C@]2(C(=O)O)CC[C@]3(C)C(=CC[C@@H]4[C@@]5(C)C[C@@H](O)[C@H](O)C(C)(C)[C@@H]5CC[C@]43C)[C@@H]2C1 [Compound 2, Maslinic acid]	97.3	0.97	99.9	
CC1(C)CC[C@]2(C(=O)OCc3cn(-c4ccc(Cl)cc4)nn3)CC[C@]3(C)C(=CCC4[C@@]5(C)C[C@@H](OCc6cn(-c7ccc(Cl)cc7)nn6)[C@H](O)C(C)(C)C5CC[C@]43C)C2C1 (stereo partly drawn) [Compound 12, (1-(4-Chlorophenyl)-1H-1,2,3-triazol-4-yl)methyl-(2α,3β)-2-((1-(4-chlorophenyl)-1H-1,2,3-triazol-4-yl)methoxy)-3-hydroxyolean-12-en-28-oate]	514	4.42		
Cc1cccc(-n2nncc2COC(=O)C23CCC(C)(C)CC2C2=CCC4C5(C)CCC(O)C(C)(C)C5CCC4(C)C2(C)CC3)c1 (stereo not drawn) [Compound 8, (1-(3-methylphenyl)-1H-1,2,3-triazol-5-yl)methyl-(3β)-3-hydroxyolean-12-en-28-oate]	170	0.98	174	
C#CCOC(=O)C12CCC(C)(C)CC1C1=CCC3C4(C)CC(OCC#C)C(OCC#C)C(C)(C)C4CCC3(C)C1(C)CC2 (stereo not drawn) [Compound 7, Propargyl-(2α,3β)-2,3-bis(propargyloxy)-olean-12-en-28-oate]	97.4	0.90	108	
COc1ccc(-c2cc(COC(=O)C34CCC(C)(C)CC3C3=CCC5C6(C)CC(O)C(O)C(C)(C)C6CCC5(C)C3(C)CC4)on2)cc1 (stereo not drawn) [Compound 16, (3-(4-methoxyphenyl)isoxazol-5-yl) methyl-(2α,3β)-2,3-dihydroxyolean-12-en-28-oate]	324	1.48		219
COc1ccc(-n2cc(COC(=O)[C@]34CCC(C)(C)CC3C3=CCC5[C@@]6(C)C[C@@H](O)[C@H](OCc7cn(-c8ccc(OC)cc8)nn7)C(C)(C)C6CC[C@@]5(C)[C@]3(C)CC4)nn2)cc1 (stereo partly drawn) [Compound 13, (1-(4-Methoxyphenyl)-1H-1,2,3-triazol-4-yl)methyl-(2α,3β)-2-hydroxy-3-((1-(4-methoxyphenyl)-1H-1,2,3-triazol-4-yl)methoxy)-olean-12-en-28-oate]	356	2.24		
C#CCOC(=O)[C@]12CCC(C)(C)CC1C1=CCC3[C@@]4(C)C[C@@H](O)[C@H](O)C(C)(C)C4CC[C@@]3(C)[C@]1(C)CC2 (stereo partly drawn) [Compound 4, Propargyl-(2α,3β)-2,3-dihydroxyolean-12-en-28-oate]	157	0.67	236	
Cc1cccc(-n2cc(COC(=O)C34CCC(C)(C)CC3C3=CCC5C6(C)CCC(O)C(C)(C)C6CCC5(C)C3(C)CC4)nn2)c1 (stereo not drawn) [Compound 10, (1-(3-methylphenyl)-1H-1,2,3-triazol-4-yl)methyl-(3β)-3-hydroxyolean-12-en-28-oate]	277	3.68	75.3	
COc1ccc(-c2cc(COC(=O)C34CCC(C)(C)CC3C3=CCC5C6(C)CCC(O)C(C)(C)C6CCC5(C)C3(C)CC4)on2)cc1 (stereo not drawn) [Compound 15, (3-(4-methoxyphenyl)isoxazol-5-yl) methyl-(3β)-3-hydroxyolean-12-en-28-oate]			523	
C#CCOC(=O)C12CCC(C)(C)CC1C1=CCC3C4(C)CC(OCC#C)C(O)C(C)(C)C4CCC3(C)C1(C)CC2 (stereo not drawn) [Compound 5, Propargyl-(2α)-2-(propargyloxy)-(3β)-3-hydroxy-olean-12-en-28-oate]	90.6	1.06	85.2	
C#CCOC(=O)[C@]12CCC(C)(C)CC1C1=CCC3[C@@]4(C)CC[C@H](O)C(C)(C)C4CC[C@@]3(C)[C@]1(C)CC2 (stereo partly drawn) [Compound 3, Propargyl-(3β)-3-hydroxyolean-12-en-28-oate]	97.4	2.32	42	
CC1(C)CC[C@]2(C(=O)O)CC[C@]3(C)C(=CC[C@@H]4[C@@]5(C)CC[C@H](O)C(C)(C)[C@@H]5CC[C@]43C)[C@@H]2C1 [Compound 1, Oleanolic acid]	190	0.39	476	
